From US9481684B2, “Gonadotropin releasing hormone receptor antagonists, method for the preparation thereof and pharmaceutical composition comprising the same” (SK CHEMICALS CO., LTD., priority 2012, dated 2016)
Read-outs that look alike come from different tables or passages of the source.

Assays:
[1] = target: T1, GnRH receptor (Homo sapiens, UniProt P30968); assay: GnRH receptor-membrane binding assay ([125I]-D-Trp6-LHRH displacement); design: purchased PerkinElmer; host or cells: CHO-K1 (ATCC CCL-61), stably transfected; conditions: for inhibition at 0.01 µM: read-out: GnRH binding inhibition (%) at 10 nM; for inhibitory effect compared with compounds comprising alkyl group (Examples 1-2 and 1-3): benzyl versus alkyl substituent at spiro-piperidine, comment on Table 10 (binding and NFAT reporter)
T1 sequence (P30968 1-328): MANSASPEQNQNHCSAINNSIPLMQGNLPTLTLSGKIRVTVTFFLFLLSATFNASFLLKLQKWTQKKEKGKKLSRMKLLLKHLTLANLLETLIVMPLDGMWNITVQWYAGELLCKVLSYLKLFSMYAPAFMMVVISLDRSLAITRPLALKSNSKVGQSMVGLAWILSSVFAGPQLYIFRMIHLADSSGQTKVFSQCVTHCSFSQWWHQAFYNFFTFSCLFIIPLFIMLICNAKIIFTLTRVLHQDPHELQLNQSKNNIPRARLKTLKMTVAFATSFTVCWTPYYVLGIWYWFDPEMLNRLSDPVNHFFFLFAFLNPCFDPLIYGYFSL
Method: A GnRH receptor membrane binding assay was carried out for the compounds of the present invention by employing a membrane substrate (PerkinElmer) isolated from CHO-K1 cells (ATCC CCL-61) stably transfected with a GnRH receptor.
A reaction was initiated by the addition of a 0.2 nM [^125I]-labeled D-Trp^6-LHRH peptide and the GnRH receptor membrane substrate at a density of 1 μg/250 μL/well, together with the inventive compounds at various concentrations ranging from 0.1 nM to 100 nM, to a binding buffer composed of 25 mM Hepes (pH 7.4), 10 mM MgCl2, 1 mM CaCl2 and 0.5% BSA (pH 7.4). The reaction mixture was incubated at 27° C. for 1 hr and subjected to vacuum suction for binding to a filter (Fitermat A, PerkinElmer). The filter was washed several times with 50 mM tris-HCl buffer to terminate the reaction. The radioactivity binding to the filter was measured using MicroBeta2 TriLux (PerkinElmer). The binding inhibition rate (%) of the inventive compounds were analyzed on the basis of the measured radioactivity, and IC50 value was calculated using a non-linear least square regression method with Prism (GraphPad, Inc.).

[2] = target: T1, GnRH receptor; assay: NFAT reporter (luciferase) gene expression assay for antagonistic effect on GnRH receptor, HEK293 transformed with pcDNA3.1/GnRH receptor and pGL4/NFAT promoter; assay type: cell-based
Method: For evaluation of antagonistic effect on GnRH receptor, double-transformed cell line, HEK293 (ATCC CRL-1573) which is transformed with pcDNA3.1/GnRH receptor and pGL4/NFAT promoter, was employed.
To conduct a GnRH receptor assay, the HEK293 (ATCC CRL-1573) cell line was diluted at a density of 3×10^4 cells/well in a DMEM medium supplemented with 10% FBS, 1% Penicillin-Streptomycin, and plated into polylysine-coated 96-well plates having a white-clear bottom, followed by incubating the cells at 37° C. for 24 hrs. Then, the medium was changed with a serum-free DMEM medium (1% Penicillin-Streptomycin), and the cells were incubated for an additional 16 hrs before use.
Test compounds were added to the wells in an amount of 1 μM to 0.01 nM, respectively, and further incubated for 1 hr. Then, leuprolide acetate as a ligand (Sigma) was added to the wells in an amount of 1 nM or 20 nM and subjected to an additional incubation for 6 hrs. The reagent of Luciferase assay system (Promega, Cat. No. E1500) was added to the wells and luminescence was measured using a luminometer (PerkinElmer, VICTOR3™, 1420 Multilabel Counter). The compound of formula 10b described in J. Med. Chem. 2008, 51, 7478 was used as a comparative compound.
Each sample was analyzed at a 6-dose level and the NFAT reporter inhibitory rate (%) of the inventive compounds was calculated according to the following equation based on the measured luminescence. Inhibition (%)={1−(compound−negative control)/(positive control−negative control)}×100 [Equation]
wherein, positive control is GnRH treated group; and negative control is non-treated group.

[3] = compound at 10 nM, 0.2 nM [125I]-D-Trp6-LHRH, CHO-K1 GnRH receptor membrane
[4] = HEK293, read-out: NFAT reporter activity inhibition (%) at 100 nM
[5] = compound at 100 nM, leuprolide acetate as ligand, HEK293, read-out: NFAT reporter activity inhibition (%) at 100 nM

SMILES: COCCN1CCC2(CC1)OCc1c2c(=O)n(C[C@H](N)c2ccccc2)c(=O)n1Cc1c(F)cccc1C(F)(F)F [Example 1-2, (R)-3-(2-amino-2-phenylethyl)-1-(2-fluoro-6-(trifluoromethyl)benzyl)-1′-(2-methoxyethyl)-1H-spiro[furo[3,4-d]pyrimidine-5,4′-piperidine]-2,4(3H,7H)-dione]
- inhibition at 0.01 µM [1, 3]: 50.8%

SMILES: CC(C)(C)CN1CCC2(CC1)OCc1c2c(=O)n(C[C@H](N)c2ccccc2)c(=O)n1Cc1c(F)cccc1C(F)(F)F [Example 1-3, (R)-3-(2-amino-2-phenylethyl)-1-(2-fluoro-6-(trifluoromethyl)benzyl)-1′-neopentyl-1H-spiro[furo[3,4-d]pyrimidine-5,4′-piperidine]-2,4(3H,7H)-dione]
- inhibition at 0.1 µM [2, 4]: 15%

SMILES: COc1cccc(CN2CCC3(CC2)OCc2c3c(=O)n(C[C@H](N)c3ccccc3)c(=O)n2Cc2c(F)cccc2C(F)(F)F)c1 [Example 1-14, (R)-3-(2-amino-2-phenylethyl)-1-(2-fluoro-6-(trifluoromethyl)benzyl)-1′-(3-methoxybenzyl)-1H-spiro[furo[3,4-d]pyrimidine-5,4′-piperidine]-2,4(3H,7H)-dione]
- inhibition at 0.1 µM [2, 4]: 34%
- inhibition at 0.01 µM [1]: 96%

SMILES: N#Cc1cccc(CN2CCC3(CC2)OCc2c3c(=O)n(C[C@H](N)c3ccccc3)c(=O)n2Cc2c(F)cccc2C(F)(F)F)c1 [Example 1-15, (R)-3-((3-(2-amino-2-phenylethyl)-1-(2-fluoro-6-(trifluoromethyl)benzyl)-2,4-dioxo-2,3,4,7-tetrahydro-1H-spiro[furo[3,4-d]pyrimidine-5,4′-piperidine]-1′-yl)methyl)benzonitrile]
- inhibition at 0.1 µM [2, 4]: 67%
- inhibitory effect compared with compounds comprising alkyl group (Examples 1-2 and 1-3) [1]: improved inhibitory effect
- inhibition at 0.01 µM [1]: 91.3%

SMILES: COC(=O)c1cccc(CN2CCC3(CC2)OCc2c3c(=O)n(C[C@H](N)c3ccccc3)c(=O)n2Cc2c(F)cccc2C(F)(F)F)c1 [Example 1-19, (R)-methyl 3-((3-(2-amino-2-phenylethyl)-1-(2-fluoro-6-(trifluoromethyl)benzyl)-2,4-dioxo-2,3,4,7-tetrahydro-1H-spiro[furo[3,4-d]pyrimidine-5,4′-piperidin]-1′-yl)methyl)benzoate]
- inhibition at 0.1 µM [2, 5]: 89%
- inhibitory effect compared with compounds comprising alkyl group (Examples 1-2 and 1-3) [1]: improved inhibitory effect
- inhibition at 0.01 µM [1, 3]: 97.5%

SMILES: N[C@@H](Cn1c(=O)c2c(n(Cc3c(F)cccc3C(F)(F)F)c1=O)COC21CCN(Cc2cccc3nonc23)CC1)c1ccccc1 [Example 1-25, (R)-3-(2-amino-2-phenylethyl)-1′-(benzo[c][1,2,5]oxadiazol-4-ylmethyl)-1-(2-fluoro-6-(trifluoromethyl)benzyl)-1H-spiro[furo[3,4-d]pyrimidine-5,4′-piperidine]-2,4(3H,7H)-dione]
- inhibition at 0.1 µM [2, 5]: 56%
- inhibition at 0.01 µM [1, 3]: 91.3%

SMILES: Cc1ccccc1CN1CCC2(CC1)OCc1c2c(=O)n(C[C@H](N)c2ccccc2)c(=O)n1Cc1c(F)cccc1C(F)(F)F [Example 1-26, (R)-3-(2-amino-2-phenylethyl)-1-(2-fluoro-6-(trifluoromethyl)benzyl)-1′-(2-methylbenzyl)-1H-spiro[furo[3,4-d]pyrimidine-5,4′-piperidine]-2,4(3H,7H)-dione]
- inhibition at 0.1 µM [2, 5]: 22%
- inhibition at 0.01 µM [1, 3]: 102%

SMILES: N[C@@H](Cn1c(=O)c2c(n(Cc3c(F)cccc3C(F)(F)F)c1=O)COC21CCN(Cc2ccccc2F)CC1)c1ccccc1 [Example 1-29, (R)-3-(2-amino-2-phenylethyl)-1-(2-fluoro-6-(trifluoromethyl)benzyl)-1′-(2-fluorobenzyl)-1H-spiro[furo[3,4-d]pyrimidine-5,4′-piperidine]-2,4(3H,7H)-dione]
- inhibition at 0.1 µM [2, 5]: 58%
- inhibition at 0.01 µM [1, 3]: 104%

SMILES: N[C@@H](Cn1c(=O)c2c(n(Cc3c(F)cccc3F)c1=O)COC21CCN(Cc2ccc(C(F)(F)F)o2)CC1)c1ccccc1 [Example 1-42, (R)-3-(2-amino-2-phenylethyl)-1-(2,6-difluorobenzyl)-1′-((5-(trifluoromethyl)furan-2-yl)methyl)-1H-spiro[furo[3,4-d]pyrimidine-5,4′-piperidine]-2,4(3H,7H)-dione]
- inhibition at 0.1 µM [2, 5]: 82%
- inhibition at 0.01 µM [1, 3]: 93.9%

SMILES: Cc1ccc(CN2CCC3(CC2)OCc2c3c(=O)n(C[C@H](N)c3ccccc3)c(=O)n2Cc2c(F)cccc2C(F)(F)F)cc1 [Example 1-50, (R)-3-(2-amino-2-phenylethyl)-1-(2-fluoro-6-(trifluoromethyl)benzyl)-1′-(4-methylbenzyl)-1H-spiro[furo[3,4-d]pyrimidine-5,4′-piperidine]-2,4(3H,7H)-dione]
- inhibition at 0.1 µM [2, 4]: 17%
- inhibition at 0.01 µM [1]: 96.3%

SMILES: N[C@@H](Cn1c(=O)c2c(n(Cc3c(F)cccc3C(F)(F)F)c1=O)COC21CCN(Cc2ccc(Cl)cc2)CC1)c1ccccc1 [Example 1-51, (R)-3-(2-amino-2-phenylethyl)-1′-(4-chlorobenzyl)-1-(2-fluoro-6-(trifluoromethyl)benzyl)-1H-spiro[furo[3,4-d]pyrimidine-5,4′-piperidine]-2,4(3H,7H)-dione]
- inhibition at 0.1 µM [2, 5]: 30%
- inhibition at 0.01 µM [1, 3]: 95.6%

SMILES: N[C@@H](Cn1c(=O)c2c(n(Cc3c(F)cccc3C(F)(F)F)c1=O)COC21CCN(Cc2cocn2)CC1)c1ccccc1 [Example 1-63, (R)-3-(2-amino-2-phenylethyl)-1-(2-fluoro-6-(trifluoromethyl)benzyl)-1′-(oxazol-4-ylmethyl)-1H-spiro[furo[3,4-d]pyrimidine-5,4′-piperidine]-2,4(3H,7H)-dione]
- inhibition at 0.1 µM [2, 5]: 18%
- inhibition at 0.01 µM [1, 3]: 88.6%

SMILES: N[C@@H](Cn1c(=O)c2c(n(Cc3c(F)cccc3C(F)(F)F)c1=O)CCC21CCN(Cc2ccc(C(F)(F)F)o2)CC1)c1ccccc1 [Example 3-5, (R)-3-(2-amino-2-phenylethyl)-1-(2-fluoro-6-(trifluoromethyl)benzyl)-1′-((5-(trifluoromethyl)furan-2-yl)methyl)-6,7-dihydrospiro[cyclopenta[d]pyrimidine-5,4′-piperidine]-2,4(1H,3H)-dione]
- inhibition at 0.1 µM [2, 5]: 99%
- inhibition at 0.01 µM [1, 3]: 101%

SMILES: Cc1cccc(C(Cn2c(=O)c3c(n(Cc4c(F)cccc4C(F)(F)F)c2=O)COC32CCN(Cc3ccc(C(F)(F)F)o3)CC2)NCCCC(=O)O)n1 (stereo not drawn) [Example 36, 4-((2-(1-(2-fluoro-6-(trifluoromethyl)benzyl)-2,4-dioxo-1′-((5-(trifluoromethyl)furan-2-yl)methyl)-1H-spiro[furo[3,4-d]pyrimidine-5,4′-piperidin]-3(2H,4H,7H)-yl)-1-(6-methylpyridin-2-yl)ethyl)amino)butanoic acid]
- inhibition at 0.01 µM ([2]; compound at 10 nM, leuprolide acetate as ligand, HEK293): 88.2%
- inhibition at 0.01 µM [1, 3]: 88%

SMILES: CONC(=O)Nc1cccc(C(Cn2c(=O)c3c(n(Cc4c(F)cccc4C(F)(F)F)c2=O)COC32CCN(Cc3ccc(C(F)(F)F)o3)CC2)NC(=O)OC(C)(C)C)c1 (stereo not drawn) [Example 63, tert-butyl (2-(1-(2-fluoro-6-(trifluoromethyl)benzyl)-2,4-dioxo-1′-((5-(trifluoromethyl)furan-2-yl)methyl)-1H-spiro[furo[3,4-d]pyrimidine-5,4′-piperidin]-3(2H,4H,7H)-yl)-1-(3-(3-methoxyureido)phenyl)ethyl)carbamate]
- inhibition at 0.1 µM [2, 5]: 100%
- inhibition at 0.01 µM [1, 3]: 89.8%
